The test system of data set [1] is metastatic or locally advanced ER+/AR+ breast cancer. Briefly: Phase 2 trial G200802, 9 mg or 18 mg daily, ER+/AR+ breast cancer. The data set is classed as in vivo, human. The note with it: for ORR / Best overall objective tumor response, CR (patients) / Best overall objective tumor response, PR (patients): post-hoc; for Best overall objective tumor response, CR (patients) / Best overall objective tumor response, PR (patients): all evaluable patients. As for the experimental part:
Each dose arm was treated independently, and each assessed for efficacy using Simon's two-stage (optimal) design (Simon R. Optimal two-stage designs for Phase 2 clinical trials. Controlled Clinical Trials 1989; 10: 1-10). Subjects were randomized in a 1:1 fashion to one of the two dose arms.
Randomization was stratified by subjects presenting with bone only metastases and all other subjects, and further by setting of immediately preceding therapy (adjuvant setting or metastatic setting) in order to balance the proportion of subjects with these presenting features in each dose arm.
Thirty-six to eighty-eight (36-88) subjects with centrally confirmed AR+ who received at least one dose of study drug (evaluable subjects) were needed for primary efficacy analysis purposes and were a subset of the full analysis set (FAS). Fifty patients in the 9 mg cohort and 52 patients in the 18 mg cohort met these criteria. […] Other statistical parameters that were part of the sample size calculation are α=0.025 (one-sided) and power=90%. The first stage in each study arm was assessed among the first 18 evaluable subjects. Greater than 3/18 subjects achieved CB (defined as CR, PR, or SD) at week 24, and both arms proceeded to the second stage of recruitment up to a total of 44 evaluable subjects per arm. Otherwise, the arm would have been discontinued for lack of efficacy. Statistical significance, i.e., rejection of the null hypothesis of an unacceptably low CBR of ≤10% in favor of the alternative hypothesis that indicated the higher rate, ≥30%, was more likely, would be declared if at least 9/44 subjects achieved CB at week 24 in that arm.
These patients on the study had measurable disease at baseline and an AR staining prior to entry into the study. The radiographic imaging in this patient population was done every 12 weeks (2.7 months). Therefore, the minimum radiographic progression free survival (rPFS) that could be determined is approximately 2.7 months. 90% of the patients in the study had previously received non-endocrine based chemotherapy. The patients in this study had failed an average of 2 prior treatment lines for metastatic disease (range=0-5). FIG. 43 provides a scatterplot for the patients in this study with regard to the correlation between % AR-positive staining at baseline (% AR staining) and rPFS. […] However, in patients with greater than or equal to 40% AR-positive staining, the rPFS was delayed to variable extents (scatter plot pattern) in many to most cases. A positive correlation between rPFS and % AR staining was seen above the threshold of 40% AR staining. To explore this positive correlation further, several subgroups of AR % staining were defined and analyzed for metrics of efficacy, as shown in Table 14.

Data set [2] can be described thus: Phase 1 multiple ascending dose study G100402. Format: in vivo, human. An excerpt:
These include: 1. Protocol G100401, a Phase 1 single ascending dose study in 96 healthy, young, male volunteers; 2. Protocol G100402, a Phase 1 multiple ascending dose study in 50 healthy, young, male volunteers, and 23 elderly male volunteers with truncal obesity; 3. Protocol G100503, a Phase 1 single dose pharmacokinetic study to assess the effect of a dosage regimen that simulates a sustained release formulation to an immediate release formulation in 18 healthy, young male volunteers and 18 postmenopausal women; 4. Protocol G100506, a Phase 1 single dose pharmacokinetic study to assess the relative bioavailability of a 3 mg hard shell capsule formulation to be used during continued clinical development and to assess the effect of food on the pharmacokinetics of the 3 mg softgel formulation in 27 healthy, young, male volunteers; 5. Protocol 006, a Phase 1 single dose and multiple dose pharmacokinetic study in 24 postmenopausal, Japanese women; 6. Protocol G200501, a Phase 2 study in 60 postmenopausal women and 60 elderly men to assess lean body mass and physical function; 7. Protocol 003, a Phase 1b study in 44 postmenopausal women; 8. Protocol G200502, a Phase 2b study in 159 men and postmenopausal women with cancer to assess lean body mass and physical function; 9.
Both 10 mg and 30 mg daily doses were evaluated in Protocol G100402 for up to 14 days. […]

A further data set concerns MCF-7-GFP cells. The data set is classed as cell-based, human. An excerpt: Tumor microenvironment contains tumor epithelial cells, stromal cells, cancer-associated fibroblasts (CAFs), and endothelial cells. The collective function of these cells promotes the aggressive growth of tumors due to secretion of paracrine factors. The CAFs are important for the sustained growth of cancers, and they differ from normal fibroblasts in their capacity to secrete factors that promote proliferation of cancer cells. […] Medium was collected over a period of 10 days and pooled. CAFs were stained with SRB to evaluate the effect of AR ligands on proliferation.
Conditioned medium was replaced on days 4 and 7 and the cells were stained with SRB to measure viability.

A further data set has as its system HCI-13 tumors. Briefly: Affymetrix microarray of HCI-13 PDX tumors. Details: species or system mice. The following applies: mouse, in vivo. As for the experimental part:
RNA from tumors was extracted and verified qualitatively and quantitatively. Total RNA (200 ng/sample; n=4/group) from each sample was amplified and labeled using the WT Plus Kit from Affymetrix and processed according to Affymetrix protocol. The arrays (Human ST2.0, Affymetrix, Santa Clara, Calif.) were washed and stained on Affymetrix Fluidics station 450 and scanned on an Affymetrix GCS 3000 scanner.
Data from microarrays were normalized using Affymetrix Expression Console. Mean, Standard Deviation, and Variance were calculated across the groups. Fold Change from vehicle-treated samples was calculated, and a fold change of 1.5 was used as cutoff Student's t-test was used to determine the significance and a cutoff of p value<0.05 was used for significance discovery. False discovery rate was calculated using Benjamini & Hochberg method, and a cutoff for FDR<0.05 was used to create a significant differential expression list. The gene candidate list was loaded to Ingenuity Pathway Analysis and gene set enrichment analysis (GSEA) performed for further discovery. Microarray experiments were performed at the UTHSC Molecular Resources Center (MRC), and data analysis was performed by the UTHSC Molecular Bioinformatics (mBio) core facility.

The values below come from patent US20220257552A1, “METHODS OF PRESCREENING AND TREATING BREAST CANCERS WITH SELECTIVE ANDROGEN RECEPTOR MODULATORS” (priority 2021, published 2022).

Consider `C[C@](O)(COc1ccc(C#N)cc1)C(=O)Nc1ccc(C#N)c(C(F)(F)F)c1` [Formula IX, (S)—N-(4-Cyano-3-(trifluoromethyl)phenyl)-3-(4-cyanophenoxy)-2-hydroxy-2-methylpropanamide], for which the “responders with duration of response ≥6 months” value in data set [1] (9 mg) was found to be 67%. In addition, the “responders with duration of response ≥12 months” value in data set [1] (9 mg) worked out at 25%. Moreover, the “Quality of life assessments” value in data set [1] (9 mg and 18 mg cohorts, p=0.002) was “significant improvement from baseline”. Also, the tolerability result in data set [1] (9 mg and 18 mg doses) was “well tolerated”; in data set [2] (daily doses up to 30 mg, healthy male volunteers), “well tolerated”. For the same molecule, the “patients with complete response” value in data set [1] (9 mg arm, 3 patients who failed palbociclib) stood at 33%. Moreover, the figures for the “Median duration of clinical benefit” value in data set [1] (9 mg group) and in data set [1] (18 mg group (11 months-16.5 months)) were “not reached” and 14.1 months, respectively. In addition, the rPFS in data set [1] (9 mg, AR nuclei staining <40%) was 2.72 months; in data set [1] (9 mg, AR nuclei staining ≥40%), 5.47 months. The ORR is recorded as 0% in data set [1] (9 mg, AR nuclei staining <40% (0/22)) and 48% in data set [1] (9 mg, AR nuclei staining ≥40% (12/25)). Besides, the “Best overall objective tumor response, CR (patients)” value was 3 in data set [1] (9 mg) and 1 in data set [1] (18 mg). Besides, the “Best overall objective tumor response, PR (patients)” value turned out to be 8 in data set [1] (9 mg) and 5 in data set [1] (18 mg). Besides, the “median duration of response” value in data set [1] (9 mg, patients with objective tumor response, range 2.73 to >27.83) came out at 8.18 months. In addition, in data set [1] (18 mg arm, 6 patients who failed palbociclib), the response rate was found to be 33%. For the same molecule, the “objective response in ≥60% AR subgroup” value in data set [1] (progressed on estrogen blocking agents and CDK 4/6 inhibitor, 4 patients) stood at 75%. For the same molecule, the “patients with an objective response” value in data set [1] (progressed on estrogen blocking agents and CDK 4/6 inhibitor, AR ≥40% (7 patients)) turned out to be 3 patients. For the same molecule, in data set [2] (30 mg dose group), the “subjects with ALT increases above two times the ULN” value is “six”. For the same molecule, the “proliferation of breast cancer CAFs” value with MCF-7-GFP cells was “neither AR agonist, DHT and Formula IX, nor AR antagonist enzalutamide, affected the proliferation”. Besides, the “proliferation of MCF-7-GFP cells fed conditioned medium from treated CAFs” value in the data set on MCF-7-GFP cells (10 days) is “inhibited the proliferation”. For the same molecule, the “members of histone group inhibited” value with HCI-13 tumors is on record as “About 17”.
